Laboratory results reported in ChEMBL document CHEMBL4340544, “Discovery of 4,6-bis(benzyloxy)-3-phenylbenzofuran as a novel Pin1 inhibitor to suppress hepatocellular carcinoma via upregulating microRNA biogenesis” (Bioorg Med Chem, 2019).
Calls of active or inactive are those of the source. The rule behind the calls is not given here.

Legend:
[1] = target: T1, Peptidyl-prolyl cis-trans isomerase NIMA-interacting 1 (Homo sapiens, UniProt Q13526); assay: Inhibition of N-terminal 6-His tagged full length Pin1 (unknown origin) expressed in Escherichia coli at 10 uM using Suc-AEPF-pNA as substrate preincubated for 10 mins followed by substrate addition and measured for 180 secs by spectrophotometry relative to untreated control
[2] = target: T1, Peptidyl-prolyl cis-trans isomerase NIMA-interacting 1; assay: Inhibition of N-terminal 6-His tagged full length Pin1 (unknown origin) expressed in Escherichia coli using Suc-AEPF-pNA as substrate preincubated for 10 mins followed by substrate addition and measured for 180 secs by spectrophotometry
[3] = target: Peptidyl-prolyl cis-trans isomerase NIMA-interacting 4 (Homo sapiens) (UniProt Q9Y237); assay: Inhibition of recombinant N-terminal His6-tagged Pin4 (unknown origin) expressed in Escherichia coli at 1 to 50 uM using Suc-AEPF-pNA as substrate preincubated for 10 min followed by substrate addition measured for 180 secs
[4] = target: Peptidyl-prolyl cis-trans isomerase A (Homo sapiens) (UniProt P62937); assay: Inhibition of recombinant N-terminal His6-tagged Cyclophilin A (unknown origin) expressed in Escherichia coli at 1 to 50 uM using Suc-AEPF-pNA as substrate preincubated for 10 min followed by substrate addition measured for 180 secs
[5] = target: T1, Peptidyl-prolyl cis-trans isomerase NIMA-interacting 1; assay: Inhibition of recombinant N-terminal His6-tagged Pin1 (unknown origin) expressed in Escherichia coli at 1 to 50 uM using Suc-AEPF-pNA as substrate preincubated for 10 min followed by substrate addition measured for 180 secs
SK-HEP1 [6] = assay: Cytotoxicity against human SKHEP1 cells assessed as reduction in cell viability by MTT assay; type: functional, cell-based
SNU-423 = assay: Cytotoxicity against human SNU423 cells assessed as reduction in cell viability by MTT assay; type: functional, cell-based
SK-HEP1 [7] = assay: Antiproliferation activity against human SKHEP1 cells assessed as reduction in colony formation at 2.5 uM measured after 7 days by crystal violet staining based microscopic analysis; type: functional, cell-based
[8] = target: T1, Peptidyl-prolyl cis-trans isomerase NIMA-interacting 1; assay: Inhibition of Pin1 in human SKHEP1 cells assessed as increase in cytoplasm distribution of XPO5 at 2.5 uM incubated for 36 hrs by DAPI staining based confocal microscopic analysis; type: cell-based
[9] = target: T1, Peptidyl-prolyl cis-trans isomerase NIMA-interacting 1; assay: Inhibition of Pin1 in human SKHEP1 cells assessed as increase in miR-122 expression at 2.5 uM incubated for 36 hrs by quantitative RT PCR analysis; type: cell-based
[10] = target: T1, Peptidyl-prolyl cis-trans isomerase NIMA-interacting 1; assay: Inhibition of Pin1 in human SKHEP1 cells assessed as increase in miR-29b expression at 2.5 uM incubated for 36 hrs by quantitative RT PCR analysis; type: cell-based
[11] = target: Peptidyl-prolyl cis-trans isomerase FKBP1A (Homo sapiens) (UniProt P62942); assay: Inhibition of recombinant N-terminal His6-tagged FKBP12 (unknown origin) expressed in Escherichia coli at 1 to 50 uM using Suc-AEPF-pNA as substrate preincubated for 10 min followed by substrate addition measured for 180 secs
Sequence of Peptidyl-prolyl cis-trans isomerase FKBP1A (Homo sapiens) (P62942 whole entry, looked up): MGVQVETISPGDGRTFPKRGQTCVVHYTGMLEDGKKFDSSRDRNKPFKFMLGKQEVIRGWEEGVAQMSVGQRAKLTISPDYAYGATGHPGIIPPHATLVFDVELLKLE

T1 sequence (Q13526 whole entry): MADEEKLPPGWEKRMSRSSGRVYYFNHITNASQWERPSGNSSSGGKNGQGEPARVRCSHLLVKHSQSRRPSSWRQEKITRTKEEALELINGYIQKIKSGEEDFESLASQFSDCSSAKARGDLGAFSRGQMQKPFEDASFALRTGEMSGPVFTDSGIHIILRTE
Sequence of Peptidyl-prolyl cis-trans isomerase NIMA-interacting 4 (Homo sapiens) (Q9Y237 whole entry): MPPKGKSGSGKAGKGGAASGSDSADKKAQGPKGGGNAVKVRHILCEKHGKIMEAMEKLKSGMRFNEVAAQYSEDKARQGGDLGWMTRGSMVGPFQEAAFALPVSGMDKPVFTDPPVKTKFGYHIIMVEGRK
Sequence of Peptidyl-prolyl cis-trans isomerase A (Homo sapiens) (P62937 whole entry, looked up): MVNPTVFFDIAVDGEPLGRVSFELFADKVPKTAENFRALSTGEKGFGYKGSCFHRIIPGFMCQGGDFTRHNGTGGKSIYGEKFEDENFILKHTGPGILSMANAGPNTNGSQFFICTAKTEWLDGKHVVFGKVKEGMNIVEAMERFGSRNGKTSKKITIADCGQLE

## CC(C)(C)c1ccc2occ(-c3ccccc3)c2c1
[1]
  inhibition: 11%

## Clc1ccc(-c2coc3ccccc23)cc1
[1]
  inhibition: 18.3%

## c1ccc2c(-c3ccsc3)coc2c1
[1]
  inhibition: 43.5%

## COc1ccc(-c2coc3ccc([N+](=O)[O-])cc23)cc1
[1]
  inhibition: 43.7%

## Cc1ccc(-c2coc3ccc(O)cc23)cc1C
[1]
  inhibition: 27.8%

## N#Cc1ccc2occ(-c3ccc4c(c3)OCO4)c2c1
[1]
  inhibition: 46.9%

## COc1ccc2occ(-c3ccc(Cl)cc3)c2c1
[1]
  inhibition: 18%

## COc1ccc2oc(-c3ccccc3)c(-c3ccccc3)c2c1
[1]
  inhibition: 25.7%

## O=[N+]([O-])c1ccc2occ(-c3ccc4c(c3)OCO4)c2c1
[1]
  inhibition: 23.4%

## COc1cc(OC)c2c(-c3ccccc3)coc2c1
[1]
  inhibition: 69.6%

## Cc1ccc(-c2coc3c(Cl)cc([N+](=O)[O-])cc23)cc1
[1]
  inhibition: 30.3%

## c1coc(-c2coc3ccccc23)c1
[1]
  inhibition: 22.2%

## CC(C)(C)c1ccc2occ(-c3ccc(Br)cc3)c2c1
[1]
  inhibition: 28.9%

## Oc1ccc2occ(-c3ccc(Cl)cc3)c2c1
[1]
  inhibition: 13.8%

## Cc1ccc2oc(-c3ccccc3)c(-c3ccccc3)c2c1
[1]
  inhibition: 13.9%

## COc1cccc(-c2coc3ccccc23)n1
[1]
  inhibition: 34.8%

## c1ccc(-c2coc3ccccc23)cc1
[1]
  inhibition: 12.4%

## COc1ccc2occ(-c3ccc(C)cc3)c2c1
[1]
  inhibition: 29.8%

## Cc1cccc2c(-c3ccccc3)c(-c3ccccc3)oc12
[1]
  inhibition: 19.6%

## COc1ccc2occ(-c3ccc(C)c(C)c3)c2c1
[1]
  inhibition: 23.7%

## O=C1C=CC(=O)c2c(O)cccc21
[1]
  inhibition: 52.6%

## O=[N+]([O-])c1ccc2occ(-c3cccc4ccccc34)c2c1
[1]
  inhibition: 14%

## COc1cccc2c(-c3ccccc3)coc12
[1]
  inhibition: 22.2%

## c1ccc(-c2oc3ccccc3c2-c2ccccc2)cc1
[1]
  inhibition: 15.8%

## Cc1ccc(-c2coc3ccc(O)cc23)cc1
[1]
  inhibition: 33.1%

## Clc1cccc2c(-c3ccccc3)c(-c3ccccc3)oc12
[1]
  inhibition: 13.6%

## Cc1ccc(-c2coc3ccc([N+](=O)[O-])cc23)cc1
[1]
  inhibition: 32.6%

## Clc1ccc2oc(-c3ccccc3)c(-c3ccccc3)c2c1
[1]
  inhibition: 22.9%

## COc1ccc(-c2coc3ccccc23)cc1
[1]
  inhibition: 54.8%

## COc1cc(OC)c2c(C)coc2c1
[1]
  inhibition: 45.9%

## Brc1ccc2occ(-c3ccccc3)c2c1
[1]
  inhibition: 19.5%

## Oc1ccc2occ(-c3ccccc3)c2c1
[1]
  inhibition: 28%

## COc1ccc2occ(-c3ccc(F)cc3)c2c1
[1]
  inhibition: 30.7%

## Clc1cc(Cl)c2occ(-c3ccccc3)c2c1
[1]
  inhibition: 16.2%

## COc1ccc2c(C)coc2c1
[1]
  inhibition: 65.1%

## c1ccc(COc2cc(OCc3ccccc3)c3c(-c4ccccc4)coc3c2)cc1
[2]
  IC50: 0.874 µM
[1]
  inhibition: 75.4%
[3]
  inhibition: inactive
[4]
  inhibition: inactive
[5]
  inhibition: Active
SK-HEP1 [6]
  IC50: 1.14 µM
SNU-423
  IC50: 2.73 µM
SK-HEP1 [7]
  Activity: Active
[8]
  inhibition: Active
[9]
  inhibition: Active
[10]
  inhibition: Active
[11]
  inhibition: inactive

## COc1ccc(-c2coc3ccc(C#N)cc23)cc1
[1]
  inhibition: 38.2%

## Oc1ccc2occ(-c3ccc(F)cc3)c2c1
[1]
  inhibition: 23.8%

## COc1cccc2occ(-c3ccccc3)c12
[1]
  inhibition: 59.5%

## Cc1ccc(-c2coc3c(C)c(C)ccc23)cc1
[1]
  inhibition: 64.6%

## COc1ccc2occ(-c3ccccc3)c2c1
[1]
  inhibition: 27%

## COc1ccc2c(-c3ccccc3)coc2c1
[2]
  IC50: 2.23 µM

## Clc1ccc2occ(-c3ccccc3)c2c1
[1]
  inhibition: 19.2%

## CC(C)(C)c1ccc2c(-c3ccc4c(c3)OCO4)coc2c1
[1]
  inhibition: 63.7%
